“And” between values parts separate entries of the source, which are not always exact repeats. Equal values may be shown once. Read-outs that look alike come from different tables or passages of the source.
Experiments:
[1] = Bioavailability test: pharmacokinetic study of TBN (API) and enteric-coated tablets in beagle dogs; format: in vivo; conditions: 175 mg, oral gavage; for MRT last: read-out: MRT (0-t); for Vd/F: read-out: Vz/F
Protocol: (10) Bioavailability test: Pharmacokinetic study of TBN (API) and enteric-coated tablets in beagle dogs
6 beagle dogs were randomly divided into 2 groups, each group having 3 animals. Each test animal was given with TBN (API) at a dosage of 175 mg, or 1 enteric-coated tablet with a specification of 175 mg prepared following the method in Example 17 by oral gavage. The blood sample was collected at various times (0.08, 0.25, 0.5, 1, 1.5, 2, 4, 8, 12, and 24 h), and analyzed by LC-MS/MS. A drug concentration-time curve was plotted to calculate the pharmacokinetic parameters.

[2] = Pharmacokinetic study of TBN enteric-coated tablets (Example 25 method) and intravenous TBN in beagle dogs; format: in vivo
Protocol: (11) Pharmacokinetic study of TBN enteric-coated tablets prepared following the method described in Example 25
24 beagle dogs (male:female 1:1) were randomly divided into 4 groups (each group having 3 female and 3 male animals). Animals in group A were injected intravenously with a TBN (API) solution at a dosage of 6 mg·kg^−1, and animals in groups B and D were respectively given with TBN enteric-coated tablets at a dosage of 100 and 900 mg·animal^−1 by oral gavage. Blood was taken from the animals in group A before and 0.083, 0.25, 0.5, 1, 2, 4, 6, 8 and 24 h after administration; and blood was taken from the animals in group B and D before and 0.25, 0.5, 1, 2, 4, 6, 8, 12 and 24 h after administration. Animals in group C were given TBN enteric-coated tablets at a dosage of 300 mg·animal^−1 for seven consecutive days. Blood was taken from the animals in group C before and 0.25, 0.5, 1, 2, 4, 6, 8, 12 and 24 h after the first and seventh administration and before and 2 h after the second to sixth administration.
Detection and analysis by LC-MS/MS were performed and the pharmacokinetic parameters were calculated.

[3] = beagle, dog, blood, po, Average of 3 animals
[4] = beagle, dog, blood, po, individual animal
[5] = individual animal, listed as TBN (API)
[6] = both sexes, dog, blood, beagle dogs, intravenous 6 mg · kg^−1, Mean

AUC(0-inf) [1, 3]: 9580 ng·h/mL
AUC(0-t) ([1]; beagle, dog, blood, po, Average of 3 animals, read-out: AUC(0-t)): 9580 ng·h/mL
Cmax ([1]; beagle, dog, blood, po, Average of 3 animals, read-out: Cmax): 10100 ng/mL
MRT last [1, 3]: 49.8 min
Vd/F [1, 3]: 1.22 L/kg
MRT last [1, 4]: 37.2 min
Vd/F [1, 4]: 1.39 L/kg
Tmax ([1]; dog, blood, individual animal): 15 min
CLz/F ([1]; Average of 3 animals): 30.2 mL/min/kg
T½z ([1]; Average of 3 animals): 31.2 min
MRT (0-t) [1, 5]: 53.4 min and 58.8 min
T½z [1, 5]: 22.8 min and 29.4 min and 42.6 min
AUC(0-inf) [2, 6]: 3560 ng·h/mL
C0 [2, 6]: 12100 ng/mL
clearance [2, 6]: 29.1 mL/min/kg
half-life [2, 6]: 17.5 min
MRT inf ([2]; both sexes, dog, blood, beagle dogs, intravenous 6 mg · kg^−1, Mean, read-out: MRT0-inf): 17.9 min
Vd ([2]; both sexes, dog, blood, beagle dogs, intravenous 6 mg · kg^−1, Mean, read-out: VDSS): 0.503 L/kg
difference in exposure levels (C0, AUC0-t) between male and female beagle dogs ([2]; intravenous administration): no significant difference
Structure (SMILES): Cc1nc(C)c(/C=[N+](\[O-])C(C)(C)C)nc1C [TBN, (cis)-2-methyl-N-[(3,5,6-trimethylpyrazin-2-yl)methylene)2-propylamine oxide]
AUC (0-∞) [1, 5]: 5294.6 ng·h/mL and 6935.3 ng·h/mL and 16503.3 ng·h/mL
AUC(0-t) [1, 5]: 5290.7 ng·h/mL and 6935.2 ng·h/mL and 16503.2 ng·h/mL
CLz/F [1, 5]: 42.8 mL/min/kg and 33.7 mL/min/kg and 14 mL/min/kg
Cmax [1, 5]: 7280.25 ng/mL and 7291.11 ng/mL and 15646.14 ng/mL
